Test results published in patent US20030013660A1, “Dioxolane analogs for improved inter-cellular delivery” (Shire BioChem Inc., priority 2000, published 2003).
Like-named read-outs stand apart in the source and are kept apart here.

Key:
Assay in all cases: 3H-TdR (3H-thymidine) incorporation assay at 72 hr
[1] = tested on: H-460; assay type: cell-based, Human; details: 3H-TdR incorporation at 72 hr
[2] = tested on: MCF-7; assay type: cell-based, Human; details: 3H-TdR incorporation at 72 hr
[3] = tested on: SF-268; assay type: cell-based, Human; details: 3H-TdR incorporation at 72 hr
[4] = tested on: CCRF-CEM; assay type: cell-based; details: 3H-TdR incorporation at 72 hr
Method: (§1) Table of IC50 Values (μM) for Controls
(§2) Exposition of 24 hr to drug, wash, incubated for another 48 hr (total of 72 hr assay)
(§3) (3H-Thymidine Incorporation Assay)

[5] = tested on: CEM/dCK-; assay type: cell-based; details: for IC50: Homo sapiens, CCRF-CEM, read-out: IC50 CEM/dCK- 24 h, 24 h drug exposure, wash, another 48 hr, deoxycytidine kinase-deficient CCRF-CEM; for Factor* (Resistance Factor = Ratio of dCK- on Wild-type CCRF-CEM): ratio of IC50 CEM/dCK- to CCRF-CEM, 24 h
Method: as §1, §2, §3

[6] = Homo sapiens, NCI-H460, read-out: IC50 H-460 24 h, 24 h drug exposure, wash, another 48 hr
[7] = Homo sapiens, MCF7, read-out: IC50 MCF-7 24 h, 24 h drug exposure, wash, another 48 hr
[8] = Homo sapiens, SF-268, read-out: IC50 SF-268 24 h, 24 h drug exposure, wash, another 48 hr
[9] = Homo sapiens, CCRF-CEM, read-out: IC50 CCRF-CEM 24 h, 24 h drug exposure, wash, another 48 hr

IC50 [1, 6]	IC50 [2, 7]	IC50 [3, 8]	IC50 [4, 9]	IC50 [5]	Structure (SMILES)	Factor* (Resistance Factor = Ratio of dCK- on Wild-type CCRF-CEM) [5]	IC50 ([1]; read-out: IC50 H-460 24 h, 24 h drug exposure, wash, another 48 hr)	IC50 ([2]; read-out: IC50 MCF-7 24 h, 24 h drug exposure, wash, another 48 hr)	IC50 ([3]; read-out: IC50 SF-268 24 h, 24 h drug exposure, wash, another 48 hr)	IC50 ([4]; read-out: IC50 CCRF-CEM 24 h, 24 h drug exposure, wash, another 48 hr)
3.1 µM	2.2 µM	7.9 µM	1.2 µM	> 100 µM	COC(=O)CCCC(=O)Nc1ccn([C@@H]2CO[C@H](CO)O2)c(=O)n1 [Compound 81, 4-[1-(2-HYDROXYMETHYL- [1,3]DIOXOLAN-4-YL)-2- OXO-1,2-DIHYDRO- PYRIMIDIN-4- YLCARBAMOYL]-BUTYRIC ACID METHYL ESTER]	83	–	–	–	–
0.17 µM	0.12 µM	0.3 µM	0.053 µM	> 100 µM	COC(=O)CCCC(=O)OC[C@H]1OC[C@@H](n2ccc(N)nc2=O)O1 [Compound 82, PENTANEDIOIC ACID 4-(4- AMINO-2-OXO-2#H!- PYRIMIDIN-1-YL)- [1,3]DIOXOLAN-2- YLMETHYL ESTER METHYL ESTER]	1,887	–	–	–	–
–	–	–	–	–	Nc1ccn([C@@H]2CO[C@H](COC(=O)CCCCCNCc3ccccc3)O2)c(=O)n1 [Compound 84, 6-Benzylamino-hexanoic acid 4-(4-amino-2-oxo-2H-pyrimidin-1-yl)-[1,3]dioxolan-2-ylmethyl ester]	5,000	0.014 µM	0.0094 µM	0.36 µM	0.012 µM
0.002 µM	0.0019 µM	0.013 µM	0.0011 µM	4 µM	CCCCC(C)C(=O)OC[C@H]1OC[C@@H](n2ccc(N)nc2=O)O1.Cl (stereo partly drawn) [Compound 86, (2S,4S)-2-(2″-METHYL- HEXANOICOXYMETHYL)-4- CYTOSIN-1′-YL-1,3- DIOXOLANE HYDROCHLORIDE]	3,636	–	–	–	–
0.14 µM	0.19 µM	0.61 µM	0.088 µM	82 µM	Cl.Nc1ccn([C@@H]2CO[C@H](COC(=O)Oc3ccc([N+](=O)[O-])cc3)O2)c(=O)n1 [Compound 88, 1-[2-(4-NITRO- PHENOXYCARBONYLOXYMETHY L)-[1,3]DIOXOLAN-4-YL]- 2-OXO-1,2-DIHYDRO- PYRIMIDIN-4-YL- AMMONIUM; CHLORIDE]	931	–	–	–	–
2.1 µM	1.6 µM	4.2 µM	1.3 µM	> 100 µM	CC(OC[C@H]1OC[C@@H](n2ccc(N)nc2=O)O1)OC1CCCCC1 (some centres unmarked) [Compound 92, 4-AMINO-1-[2-(1- CYCLOHEXYLOXY- ETHOXYMETHYL)- [1,3]DIOXOLAN-4-YL]-1H- PYRIMIDIN-2-ONE]	77	–	–	–	–

Structure (SMILES)	IC50 [1, 6]	IC50 [2, 7]	IC50 [3, 8]	IC50 [4, 9]	IC50 [5]	Factor* (Resistance Factor = Ratio of dCK- on Wild-type CCRF-CEM) [5]	IC50 ([1]; read-out: IC50 H-460 24 h, 24 h drug exposure, wash, another 48 hr)	IC50 ([2]; read-out: IC50 MCF-7 24 h, 24 h drug exposure, wash, another 48 hr)	IC50 ([3]; read-out: IC50 SF-268 24 h, 24 h drug exposure, wash, another 48 hr)	IC50 ([4]; read-out: IC50 CCRF-CEM 24 h, 24 h drug exposure, wash, another 48 hr)
Nc1ccn([C@@H]2CO[C@H](CO[C@@H]3O[C@H](CO)[C@@H](O)[C@H]3O)O2)c(=O)n1.O=C(O)C(F)(F)F [Compound 85, 4-AMINO-1-[2-(3,4- DIHYDROXY-5- HYDROXYMETHYL- TETRAHYDROFURAN-2- YLOXYMETHYL)- [1,3]DIOXOLAN-4-YL]- 1HPYIMIDIN-2-ONE, TRIFLUOROACETIC ACID SALT]	0.69 µM	6.8 µM	16 µM	2.6 µM	> 100 µM	38	–	–	–	–
O=C(O)C(F)(F)F.O=c1nc(NC/C=C/c2ccccc2)ccn1[C@@H]1CO[C@H](CO)O1 [Compound 89, 1-(2-HYDROXYMETHYL- [1,3]DIOXOLAN-4-YL)-4- (3-CINNAMYL)-1H- PYRIMIDIN-2-ONE TRIFLUORO-ACETATE SALT]	3.8 µM	0.22 µM	11 µM	2.5 µM	> 100 µM	40	–	–	–	–
Nc1ccn([C@@H]2CO[C@H](COC/C=C/c3ccccc3)O2)c(=O)n1.O=C(O)C(F)(F)F [Compound 90, 4-AMINO-1-[2-(3- CINNAMYLOXYMETHYL)- [1,3]DIOXOLAN-4-YL]-1H- PYRIMIDIN-2-ONE TRIFLUOROACETATE SALT]	95 µM	61 µM	> 100 µM	65 µM	> 100 µM	1.5	–	–	–	–
